This is an account of results in publication PMC5893615, “Inhibition of homoserine dehydrogenase by formation of a cysteine-NAD covalent complex” (Scientific Reports, 2018).

In data set [1] the target is T1, Homoserine dehydrogenase (StHSD) (Sulfurisphaera tokodaii, UniProt F9VNG5).
T1 construct: gene hom
Nature of the data set: crystal structure with cysteine at […] Å; steady-state kinetics (apparent Km). Type of data set: biochemical. The following applies: cited from earlier work.

Data set [2] concerns the target T1, Homoserine dehydrogenase (StHSD). Nature of the data set: initial velocity and product inhibition kinetics of NAD-dependent oxidation by purified enzyme. The data set is classed as biochemical.
Data set [3] has the same target. Kind of data set: crystal structure with NAD at […] Å; Ki from Dixon plots of homoserine oxidation by purified enzyme; difference UV spectrum. The data set is classed as biochemical.
The target is the same in data set [4]. Kind of data set: product inhibition kinetics of homoserine oxidation (double reciprocal plots). The data set is classed as biochemical.
Substrate in data set [5]: NC(=O)c1ccc[n+]([C@@H]2O[C@H](COP(=O)([O-])OP(=O)(O)OC[C@H]3O[C@@H](n4cnc5c(N)ncnc54)[C@H](OP(=O)(O)O)[C@@H]3O)[C@@H](O)[C@H]2O)c1
Nature of the data set: steady-state kinetics of purified enzyme (apparent Km). The data set is classed as biochemical, Sulfurisphaera tokodaii. The following applies: Phe49 could exclude the C2′ phosphate group of NADP; varied: cofactor.

For the molecule `NC(=O)c1ccc[n+]([C@@H]2O[C@H](COP(=O)([O-])OP(=O)(O)OC[C@H]3O[C@@H](n4cnc5c(N)ncnc54)[C@H](O)[C@@H]3O)[C@@H](O)[C@H]2O)c1` [NAD], in data set [1], the Michaelis-Menten constant (Km) is 330 µM.
Take `N[C@@H](CCO)C(=O)O` [homoserine]: the “initial velocity and product inhibition kinetics of NAD-dependent oxidation by p” value in data set [2] is “NAD binds to the free form of the enzyme, after which homoserine binds to the enzyme-NAD complex”.
On to `N[C@@H](CS)C(=O)O` [cysteine], for which, in data set [3], the affinity corresponds to a Ki of 11 µM.
With `NC(=O)C1=CN([C@@H]2O[C@H](COP(=O)(O)OP(=O)(O)OC[C@H]3O[C@@H](n4cnc5c(N)ncnc54)[C@H](O)[C@@H]3O)[C@@H](O)[C@H]2O)C=CC1` [NADH], in data set [4], the “product inhibition kinetics of homoserine oxidation (double reciprocal plots)” value is given as “which suggests that NADH acts as a competitive inhibitor of NAD”.

B1: Homoserine dehydrogenase (StHSD) (Sulfurisphaera tokodaii str. 7) (protein)
chain: MKLLLFGYGNVGKAFRKLLHEKRSPELNDVIIGGIVTRRGIMLQDKEDFTPDLEGDVFKAFEKIKPDIIVDVSSANYNNGEPSLSLYKEAIKDGVNIITTNKAPLALAFNEIFSLARSKGVKIGFQGTVMSGTPSINLYRVLPGSRVIKIRGILNGTTNFILTLMNKGVSFEEALKEAQRRGYAEEDPTLDINGFDAAAKITILANFMIGNSVTIKDVKFEGINRDLPKNEKIKLIAYADEKEVWVKPLPISQDDPLYNVDGVENALEITTDIQSILIRGPGAGPVNAAYGALSDLILLKRDCL
Turning to B1, in data set [5], the Michaelis constant (Km) was determined as 1200 µM.

As usually defined, the Km is the concentration of substrate that gives half-maximal velocity. As usually defined, the Ki is the equilibrium dissociation constant of an inhibitor or competing ligand from its target. High values mean a looser hold on the target, low ones a stronger hold on the target.
